In ChEMBL document CHEMBL1130291, “Synthesis of trimethylated phosphonium and arsonium analogues of the osmoprotectant glycine betaine; contrasted biological activities in two bacterial species” (Bioorg Med Chem Lett, 1997) one finds Activity data, which are given here for 3 compounds.

Structures are written as SMILES. The source made the active and inactive calls. The rule behind the calls is not given here.

What all share (type): functional, organism-based
Experiment [1] has as its system Escherichia coli. Nature of the experiment: Inhibitory activity against growth of Escherichia coli MC4100 in presence 0.8M NaCl; Strong inhibition.
In experiment [2] the test system is Escherichia coli. In words: Inhibitory activity against growth of Escherichia coli MC4100 without NaCl; No effect.
For experiment [3], the system named is Sinorhizobium meliloti. In words: Osmoprotective activity of compound in Rhizobium meliloti 102F34 by restoring its growth rate was evaluated; Highly osmoprotective.
Experiment [4] relates to Sinorhizobium meliloti. Nature of the experiment: Inhibition of the growth of Rhizobium meliloti was observed at 1 mM by inoculation of 0.5 M NaCl; No growth was observed.
The subject of experiment [5] is Sinorhizobium meliloti. In words: Osmoprotective activity of compound in Rhizobium meliloti 102F34 by restoring its growth rate was evaluated; Highly toxic.

As to `C[N+](C)(C)CC(=O)O`, the Activity result in the experiment with Escherichia coli [1] and in the experiment on Sinorhizobium meliloti [3] was “Highly osmoprotective” in each case. For the same compound, in the experiment with Escherichia coli [2], the result was inactive.

In the case of `C[P+](C)(C)CC(=O)[O-]`, the Activity result was “No growth” with Escherichia coli [1], “No growth” with Sinorhizobium meliloti [4] and “Toxic” in the experiment with Sinorhizobium meliloti [5]. In addition, the outcome with Escherichia coli [2] was inactive.

Take `C[As+](C)(C)CC(=O)[O-]`: the values for the Activity result with Escherichia coli [1], with Sinorhizobium meliloti [4] and with Sinorhizobium meliloti [5] were “No growth”, “No growth” and “Toxic”, respectively. Also, the result in the experiment with Escherichia coli [2] was inactive.
